# Data published in ChEMBL document CHEMBL1275450, “Posaconazole enhances the activity of amphotericin B against hyphae of zygomycetes in vitro” (2008).
# How the values were obtained:
# Assay type in all cases: functional
# Rhizopus [1] = assay: Antimicrobial activity against Rhizopus spp. hyphae after 24 hrs by AFST-EUCAST method
# [2] = test system: Cunninghamella bertholletiae; assay: Antimicrobial activity against Cunninghamella bertholletiae conidia after 24 hrs by AFST-EUCAST method
# [3] = test system: Syncephalastrum racemosum; assay: Antimicrobial activity against Syncephalastrum racemosum conidia after 24 hrs by AFST-EUCAST method
# Mucor [4] = assay: Antimicrobial activity against Mucor spp. conidia after 24 hrs by AFST-EUCAST method
# Rhizomucor [5] = assay: Antimicrobial activity against Rhizomucor spp. conidia after 24 hrs by AFST-EUCAST method
# [6] = test system: Syncephalastrum racemosum; assay: Antimicrobial activity against Syncephalastrum racemosum hyphae after 24 hrs by AFST-EUCAST method
# Lichtheimia corymbifera [7] = assay: Antimicrobial activity against Absidia corymbifera hyphae after 24 hrs by AFST-EUCAST method
# [8] = test system: Cunninghamella bertholletiae; assay: Antimicrobial activity against Cunninghamella bertholletiae hyphae after 24 hrs by AFST-EUCAST method
# Rhizomucor [9] = assay: Antimicrobial activity against Rhizomucor spp. hyphae after 24 hrs by AFST-EUCAST method
# Rhizopus [10] = assay: Antimicrobial activity against Rhizopus spp. conidia after 24 hrs by AFST-EUCAST method
# Mucor [11] = assay: Antimicrobial activity against Mucor spp. hyphae after 24 hrs by AFST-EUCAST method
# Lichtheimia corymbifera [12] = assay: Antimicrobial activity against Absidia corymbifera conidia after 24 hrs by AFST-EUCAST method
# [13] = test system: Syncephalastrum racemosum; assay: Antimicrobial activity against Syncephalastrum racemosum hyphae after 24 hrs by XTT method in presence of amphotericin B
# Rhizopus arrhizus [14] = assay: Antimicrobial activity against Rhizopus oryzae hyphae after 24 hrs by XTT method in presence of amphotericin B
# [15] = test system: Cunninghamella bertholletiae; assay: Antimicrobial activity against Cunninghamella bertholletiae conidia after 24 hrs by XTT method in presence of amphotericin B
# Rhizopus arrhizus [16] = assay: Antimicrobial activity against Rhizopus oryzae conidia after 24 hrs by XTT method in presence of amphotericin B
# Rhizomucor [17] = assay: Antimicrobial activity against Rhizomucor spp. hyphae after 24 hrs by XTT method in presence of amphotericin B
# [18] = Antimicrobial activity against Rhizopus microsporus hyphae after 24 hrs by XTT method in presence of amphotericin B
# Lichtheimia corymbifera [19] = assay: Antimicrobial activity against Absidia corymbifera conidia after 24 hrs by XTT method in presence of amphotericin B
# Rhizomucor [20] = assay: Antimicrobial activity against Rhizomucor spp. conidia after 24 hrs by XTT method in presence of amphotericin B
# Mucor [21] = assay: Antimicrobial activity against Mucor spp. hyphae after 24 hrs by XTT method in presence of amphotericin B
# Mucor [22] = assay: Antimicrobial activity against Mucor spp. conidia after 24 hrs by XTT method in presence of amphotericin B
# Lichtheimia corymbifera [23] = assay: Antimicrobial activity against Absidia corymbifera hyphae after 24 hrs by XTT method in presence of amphotericin B
# [24] = Antimicrobial activity against Rhizopus microsporus conidia after 24 hrs by XTT method in presence of amphotericin B
# [25] = test system: Syncephalastrum racemosum; assay: Antimicrobial activity against Syncephalastrum racemosum conidia after 24 hrs by XTT method in presence of amphotericin B
# [26] = test system: Cunninghamella bertholletiae; assay: Antimicrobial activity against Cunninghamella bertholletiae hyphae after 24 hrs by XTT method in presence of amphotericin B
SMILES,MIC (Rhizopus [1]),MIC [2],MIC [3],MIC (Mucor [4]),MIC (Rhizomucor [5]),MIC [6],MIC (Lichtheimia corymbifera [7]),MIC [8],MIC (Rhizomucor [9]),MIC (Rhizopus [10]),MIC (Mucor [11]),MIC (Lichtheimia corymbifera [12]),further results
C[C@@H]1[C@H](O)[C@@H](C)/C=C/C=C/C=C/C=C/C=C/C=C/C=C/[C@H](O[C@@H]2O[C@H](C)[C@@H](O)[C@H](N)[C@@H]2O)C[C@@H]2O[C@](O)(C[C@@H](O)C[C@@H](O)[C@H](O)CC[C@@H](O)C[C@@H](O)CC(=O)O[C@H]1C)C[C@H](O)[C@H]2C(=O)O [AMPHOTERICIN B],1 µg/mL,0.5 µg/mL,0.5 µg/mL,0.5 µg/mL,0.5 µg/mL,1 µg/mL,1 µg/mL,1 µg/mL,1 µg/mL,0.5 µg/mL,1 µg/mL,0.5 µg/mL,
CC[C@@H]([C@H](C)O)n1ncn(-c2ccc(N3CCN(c4ccc(OC[C@@H]5CO[C@@](Cn6cncn6)(c6ccc(F)cc6F)C5)cc4)CC3)cc2)c1=O [POSACONAZOLE],1 µg/mL,0.25 µg/mL,0.25 µg/mL,0.25 µg/mL,0.25 µg/mL,1 µg/mL,1 µg/mL,1 µg/mL,1 µg/mL,0.25 µg/mL,1 µg/mL,0.25 µg/mL,fractional inhibitory concentration index (FICI) [13]: 0.6; fractional inhibitory concentration index (FICI) (Rhizopus arrhizus [14]): 1; fractional inhibitory concentration index (FICI) [15]: 1.1; fractional inhibitory concentration index (FICI) (Rhizopus arrhizus [16]): 0.75; fractional inhibitory concentration index (FICI) (Rhizomucor [17]): 0.75; fractional inhibitory concentration index (FICI) [18]: 0.37; fractional inhibitory concentration index (FICI) (Lichtheimia corymbifera [19]): 0.75; fractional inhibitory concentration index (FICI) (Rhizomucor [20]): 0.5; fractional inhibitory concentration index (FICI) (Mucor [21]): 0.5; fractional inhibitory concentration index (FICI) (Mucor [22]): 1.25; fractional inhibitory concentration index (FICI) (Lichtheimia corymbifera [23]): 0.37; fractional inhibitory concentration index (FICI) [24]: 0.37; fractional inhibitory concentration index (FICI) [25]: 1; fractional inhibitory concentration index (FICI) [26]: 0.5
